Assay results published in ChEMBL document CHEMBL5674860, “Optimized Dual-Glo Assay to identify co-culture-induced drug vulnerabilities in 3D CRC models” (2024).

How the values were obtained:
Type in all cases: functional, Homo sapiens
Design in all cases: dose or concentration left out as unconfirmed
Colon cancer organoid [1] = assay: Optimized Dual-Glo assay to identify co-culture induced drug vulnerabilities using donated chemical probes and chemogenomics kinase set in O06 CRC organoid and F06 CAF mono and co-culture. […] Cell viability is reported both mono and co-culture models.
Colon cancer organoid [2] = assay: Optimized Dual-Glo assay to identify co-culture induced drug vulnerabilities using donated chemical probes and chemogenomics kinase set in O14 CRC organoid and F14 CAF mono and co-culture. […] Cell viability is reported both mono and co-culture models.
Colon cancer organoid [3] = assay: Optimized Dual-Glo assay to identify co-culture induced drug vulnerabilities using donated chemical probes and chemogenomics kinase set in O20 CRC organoid and F20 CAF mono and co-culture. […] Cell viability is reported both mono and co-culture models.
[4] = Culture type Co-Culture, Transduced with Lucferase2-P2A-EGFP lentivirus
[5] = Culture type Co-Culture, Transduced with Renilla-dsRed lentivirus
[6] = Culture type Mono-Culture, Transduced with Lucferase2-P2A-EGFP lentivirus
[7] = Culture type Mono-Culture, Transduced with Renilla-dsRed lentivirus

| Structure (SMILES) | Cell Viability (Colon cancer organoid [1]; [4]) [%] | Cell Viability (Colon cancer organoid [1]; [5]) [%] | Cell Viability (Colon cancer organoid [1]; [6]) [%] | Cell Viability (Colon cancer organoid [1]; [7]) [%] | Cell Viability (Colon cancer organoid [2]; [4]) [%] | Cell Viability (Colon cancer organoid [2]; [5]) [%] | Cell Viability (Colon cancer organoid [2]; [6]) [%] | Cell Viability (Colon cancer organoid [2]; [7]) [%] | Cell Viability (Colon cancer organoid [3]; [4]) [%] | Cell Viability (Colon cancer organoid [3]; [5]) [%] | Cell Viability (Colon cancer organoid [3]; [6]) [%] | Cell Viability (Colon cancer organoid [3]; [7]) [%] |
| --- | --- | --- | --- | --- | --- | --- | --- | --- | --- | --- | --- | --- |
| CC(C)Oc1ccc(-c2c[nH]cc2CN(C)CCO)cc1 | 112.392 | 114.959 | 84.6605 | 116.102 | 119.367 | 107.888 | 90.5544 | 99.1586 | 114.035 | 121.653 | 114.538 | 100.305 |
| CCC(=O)N1CCN(c2ccc(-n3c(=O)ccc4cnc5ccc(-c6cnc7ccccc7c6)cc5c43)cc2C(F)(F)F)CC1 [TORIN1] | 4.705 | 40.1911 | 4.406 | 17.8443 | 6.678 | 21.6908 | 9.433 | 15.03 | 7.384 | 44.8651 | 4.069 | 24.9993 |
| C[C@H](c1ccnc(Nc2nc3ccc(-c4cc(N(C)C)ncn4)cc3[nH]2)c1)N1CCN(C(=O)CC(F)(F)F)CC1 [BAY-985] | 134.436 | 180.071 | 90.5996 | 96.3949 | 122.433 | 113.895 | 111.789 | 77.4572 | 129.711 | 125.86 | 106.931 | 106.043 |
| CNCCN1CCC(c2cc(CN(C)C(=O)c3cccc(Oc4ccccc4)c3)ccn2)CC1 | 83.6812 | 129.007 | 98.3617 | 135.689 | 99.3221 | 120.381 | 93.8948 | 118.528 | 67.0647 | 133.473 | 86.7663 | 93.4663 |
| Cc1sc2c(c1C)C(c1ccc(Cl)cc1)=N[C@H](CC(=O)OC(C)(C)C)c1nnc(C)n1-2 | 107.283 | 109.974 | 69.4816 | 97.8447 | 111.301 | 136.501 | 108.464 | 107.072 | 98.7176 | 113.657 | 118.396 | 90.6965 |
| Cc1cc2c(-c3ccco3)cnc(N[C@@H]3CCN(C)C[C@H]3C(=O)NC3CCCCC3)c2[nH]c1=O [GSK789] | 76.5976 | 134.369 | 59.8107 | 179.691 | 80.165 | 245.195 | 48.5278 | 143.743 | 33.945 | 125.83 | 39.8308 | 103.931 |
| Cc1cccc(-c2cnc3occ(-c4ccc(C(=O)O)c(C5CCCC5)c4)c3c2)c1 | 95.2844 | 61.5637 | 124.633 | 116.796 | 114.736 | 94.3308 | 126.625 | 90.9911 | 88.6258 | 133.429 | 94.6873 | 103.401 |
